Experimental data from PubChem BioAssay AID1224900.

Test system: MDA-MB-231 viability, PrestoBlue fluorescence
Assay: growth inhibition of MDA-MB-231 cells, dose response, mTOR inhibitor project (AID 1224900)

EC50: 72 nM
SMILES: CCOC(Cn1nc(-c2ccc3oc(N)nc3c2)c2c(N)ncnc21)OCC
